From patent publication EP4427746A1, “TREATMENT OF DEMENTIA USING BORTEZOMIB OR PARBENDAZOLE” (Bash Biotech Inc, priority 2023, dated 2024)
Where two headings read alike, the source gives them in different places.

Key:
[1] = system: glioblastoma cell line U138MG
Experimental: (§3) Before performing these assays, the optimum cell count per well was decided by comparing the optical density for L-glutamate (ab120049) absorbance between DMEM-0819 (with glutamine) and DMEM-5671 (without glutamine) culture media, which was tested by glutamate assay kit from Abcam (Abcam PLC, Cambridge, UK) at 450 nm following its protocol, then cultured 20000 cells per well in DMEM-0819 with L-alanyl-L glutamine, adherently, treated with drugs dissolved in DMSO separately. To prepare LDH assay high control samples, cell lysis solution was added instead of drugs. Samples were incubated in a humidified incubator (at 37 °C, 5% CO2). A microplate reader was used to measure absorbances.
(§4) Tetrazolium reduction assay (MTT assays) and lactate dehydrogenase release assays (LDH assays) were conducted to assess cell metabolic activity (cell proliferation) and to measure cytotoxicity (drug toxicity). Abcam protocols (MTT: ab211091, LDH: ab65293) were followed. Here, both protocols were summarized.
(§5) Before adding assay solutions on day 1 (24 hours) and day 2 (48 hours), the drug treatment media were aspirated from plates and transferred to well plates.
(§6) For the MTT assay, serum-free media and MTT Reagent were added to each well. Control samples were prepared without using cells but serum-free media and MTT reagent. […] The reduction of MTT by mitochondrial succinate dehydrogenase was measured by reading absorbance at OD = 590 nm (yellow to purple). Cytotoxicity (CT) was calculated as a ratio of measures of absorbance of control wells (AbsC) and absorbance of sample-containing wells (AbsS) as below: CT = 100∗((AbsC−AbsS))/(AbsC) [formula]
(§7) For the LDH release assay, LDH reaction mix was added to wells. […] The release of LDH from cells due to damaged plasma membrane was measured by reading absorbance at OD = 450 nm (blue). Cytotoxicity (CT) was calculated as a ratio of measures of absorbance of low control wells (AbsLC), high control wells (AbsHC) sample wells (AbsS) as below: CT = 100∗((AbsS−AbsLC))/((AbsHC−AbsLC)) [formula]

glutaminase-2 = assay: Western blot for drug-induced glutaminase content; assay type: cell-based; conditions: U138MG cells, Figure 8
Experimental: (§1) A microplate reader was used to measure absorbances.
(§2) Drug-induced glutaminase content was measured by western. The cells were washed with PBS and lysed with CelLytic M (C2978, Sigma-Aldrich, Saint Louis, MO, USA) lysis buffer containing protease inhibitors. The lysates were centrifuged at 12,000 rotations per minute for 5 min, and the supernatant was collected. Proteins were separated by Mini-PROTEAN® TGXTM Precast Gels (BioRad, Berkeley, CA, USA) and transferred to a Trans-Blot Turbo Mini 0.2um PVDF Transfer Packs membrane (BioRad, Berkeley, CA, USA) by using Trans-Blot® TurboTM Transfer System (Bio-Rad, Berkeley, CA, USA). The antibodies for mitochondrial glutaminase-1 (kidney-type) and glutaminase-2 (liver-type) encoded from two GLS isomers and GAPDH were used for primary immunoblotting. All the antibodies were diluted at a 1:1000 concentration. DMSO was used as a blank reference. The membranes were incubated in primary antibody solution overnight at 4 °C with gentle rocking. The secondary antibody, goat Anti-Rabbit HRP (ab205718) or goat anti-mouse IgG-HRP (sc2005, Santa Cruz Biotechnology, Inc., Dallas, TX, USA), was blotted for 30 min at 4 °C with gentle rocking. The protein bands were detected with ImageQuant LAS 500 (29-0050-63)

[2] = system: glioblastoma cell line U138MG; assay: Glutamate contents assay; assay type: cell-based; conditions: U138MG cells after drug treatment, compared to cell viability, Figure 7
Source text: as §1
Drug efficacy describes how the drug-protein interaction manipulates the normal action of the protein. Glutamate content was examined at differing drug concentrations with the glutamate assay kit to measure drug efficacies. Abcam protocol (ab83389) was followed to quantitate glutamate content. Here, the protocols were summarized.
To prepare samples, cells were harvested, washed with cold PBS, resuspended in an assay buffer, homogenised, incubated for 15 - 30 min on ice, and centrifuged for 2 - 5 minutes at 4°C at top speed using a cold microcentrifuge. The supernatant was collected and transferred to a clean tube, then distributed to well plates.
To quantitate free glutamate levels, the reaction mixture was added to each standard and sample well. The background reaction mix was added to the background sample wells. Wells were mixed and incubated at 37°C for 30 minutes protected from light. Colour change was measured at OD = 450 nm (blue). Glutamate concentration was calculated as formulated in the protocol, then divided by relative cytotoxicity by MTT assay to extrapolate drug efficacy.

glutaminase-1 = assay: Western blot for drug-induced glutaminase content; assay type: cell-based; conditions: U138MG cells, Figure 8
Experimental: as §1, §2

[3] = system: glioblastoma cell line U138MG; assay: Drug toxicity: MTT assay and LDH release assay; conditions: U138MG glial cells, MTT and LDH release assays, 24 and 48 hours, Figure 6
Experimental: as §3, §4, §5, §6, §7

SMILES | drug toxicity (metabolic activity and cytotoxicity) [1] | drug affinity for glutaminase-2 (relative band intensities) (glutaminase-2) | glutamate levels [2] | drug affinity for glutaminase-1 (relative band intensities) (glutaminase-1) | drug toxicity (metabolic activity and cytotoxicity) [3]
CC(C)C[C@H](NC(=O)[C@H](Cc1ccccc1)NC(=O)c1cnccn1)B(O)O [bortezomib] | toxic for glial cells even at low concentrations | drastic | highly decreased |  | 
CC12CC3CC(C)(C1)CC(N)(C3)C2 [memantine] | insignificant | significant and higher affinity | highly decreased | significant drug affinity for glutaminase-1 could be measured for only comparably higher concentrations | 
CCCCc1ccc2[nH]c(NC(=O)OC)nc2c1 [parbendazole] |  | drastic | highly decreased | significant drug affinity for glutaminase-1 could be measured for only comparably higher concentrations | toxic for glial cells even at low concentrations
